Assay results: patent US12403135B2, “4H-pyrrolo[3,2-c]pyridin-4-one derivatives” (Bayer Aktiengesellschaft, priority 2019, dated 2025)

Legend:
Type in all cases: cell-based
[1] = target: Ba/F3-ERBB2-A775_G776insYVMA cells (Homo sapiens, UniProt P04626, DUP772-775, cells depend on it); assay: BA/F3 (ERBB2 A775_G776 insYVMA) proliferation; details: Table 12; read-out: BA/F3 (ERBB2 A775_G776 insYVMA) IC50
Experimental: (§1) Plates were incubated at 37° C. for 48 h. Retrovirus was harvested by filtering the media supernatant through a 0.45 μm filter.
(§2) Ba/F3 cells purchased from DSMZ were grown in RPMI+10% FBS+10 ng/mL IL-3 and infected with filtered retroviral supernatant at a 1:2 dilution. Polybrene was added to a concentration of 8 μg/mL, plates were spun for 90 min, and incubated overnight at 37° C. 2 μg/mL puromycin was added to the infected cells 24 h after infection and cells were continually grown in the presence of puromycin and 10 ng/mL IL-3. Following stably expressing Ba/F3 cell lines were generated: Ba/F3-EGFR-V769_D770 insASV, Ba/F3-EGFR-D770_N771 insNPG, Ba/F3-EGFR-N771_P772 insH, Ba/F3-EGFR-H773_V774 insNPH, Ba/F3-EGFR-D770_N771 insSVD C797S, Ba/F3-EGFR-E746_A750del C797S, Ba/F3-EGFR-L858R C797S, Ba/F3-EGFR L861Q and Ba/F3-ERBB2-A775_G776insYVMA (Ba/F3-vector-control).

Ba/F3-EGFR L861Q cells = assay: BA/F3 (EGFR L861Q) proliferation, uncommon EGFR mutation; details: Table 10, classical activating and uncommon EGFR mutations
Experimental: as §1, §2

Ba/F3-EGFR-L858R cells = Ba/F3-EGFR-L858R cells (Homo sapiens, UniProt P00533, L858R, cells depend on it); assay: BA/F3 EGFR L858R cell survival assay, Cell Titer-Glo; details: Table 10; classical activating and uncommon EGFR mutations; read-out: BA/F3 (EGFR L858R) IC50
Experimental: as §1
(§3) Ba/F3 cells purchased from DSMZ were grown in RPMI+10% FBS+10 ng/mL IL-3 and infected with filtered retroviral supernatant at a 1:2 dilution. Polybrene was added to a concentration of 8 μg/mL, plates were spun for 90 min, and incubated overnight at 37° C. 2 μg/mL puromycin was added to the infected cells 24 h after infection and cells were continually grown in the presence of puromycin and 10 ng/mL IL-3. Following stably expressing Ba/F3 cell lines were generated: Ba/F3-EGFR-L858R, Ba/F3-EGFR-delLREA, (Ba/F3-vector-control).
(§4) For cell survival assays, Ba/F3 cells were grown to a density of 1-2 million cells per mL, spun down and resuspended in media without IL-3, and replated at a concentration 200,000-500,000 cells per mL. The cells ectopically expressing pBABEpuro empty vector were plated with 10 ng/mL IL-3.
(§5) 2 days later, cells were plated in 50 μL in a 384 well plate at a concentration of 4000 cells per well for cells assayed in the absence of IL-3 and 2000 cells per well for cells (pBABE puro empty vector) assayed in the presence of IL-3. 100 nL of compound was added to each well using a 100 nL pin head, and plates were incubated at 37° C. for 48 h.
(§6) Cell viability was measured by adding 20 μL of Cell Titer-Glo Luminescent Cell Viability Reagent diluted 1:3 in PBS. Plates were sealed with Perkin Elmer Top-Seal, inverted several times to mix, and immediately centrifuged at 1000 rpm for 2 min. Plates were incubated in low light conditions for 8-10 min and luminescence was measured.

[2] = target: Ba/F3-EGFR-V769_D770 insASV cells (Homo sapiens, UniProt P00533, DUP767-769, cells depend on it); assay: BA/F3 (ASV) proliferation, EGFR Exon20 insertion mutation; details: Table 9; EGFR Exon20 insertion mutations; read-out: BA/F3 (ASV) IC50
Experimental: as §1, §2

[3] = tested on: Ba/F3-EGFR-D770_N771 insSVD C797S cells; assay: BA/F3 (EGFR D770_N771 insSVD C797S) proliferation, acquired resistance; details: Ba/F3 EGFR-D770-N771ins_SVD; Table 11; acquired resistance space
Experimental: as §1, §2

[4] = tested on: Ba/F3-EGFR-delLREA cells (EGFR del19/delLREA (746-750), E746_A750del); assay: BA/F3 EGFR del19/delLREA (746-750) (E746_A750del) cell survival assay, Cell Titer-Glo; details: Table 10, classical activating and uncommon EGFR mutations, read-out: BA/F3 (EGFR E746_A750del) IC50
Experimental: as §1, §3, §4, §5, §6

[5] = tested on: Ba/F3-EGFR-E746_A750del C797S cells; assay: BA/F3 (EGFR E746_A750del C797S) proliferation, acquired resistance; details: Table 11, acquired resistance space
Experimental: as §1, §2

[6] = tested on: Ba/F3-EGFR-L858R C797S cells; assay: BA/F3 (EGFR L858R C797S) proliferation, acquired resistance; details: Table 11, acquired resistance space
Experimental: as §1, §2

PC9 cells (EGFRex19del) = assay: PC9 cell proliferation, Cell Titer Glo, 72 h
Experimental: (§7) PC9 cells were purchased from ATCC. 400 PC9 cells per well were seeded in growth medium (DMEM, 10% FCS) in a 384-well plate (CORNING #3571). Seed reference plate for time zero determination on the same day. All plates were incubated overnight at 37° C. After 24 hours, test compound were added in 7-step dilution using HP Compound printer and incubated at 37° C. for 72 h. After 3 days, 30 μL/well CTG solution (Promega Cell Titer Glo solution; catalog #G755B and G756B) were added to each well, incubated for 30 minutes and the plate were read on PheraStar. Proliferation is calculated after subtracting time zero luminescence values from day 4 values and comparing to untreated wells. The IC50 values were determined using the four parameter fit.

[7] = target: Ba/F3-EGFR-D770_N771 insNPG cells (Homo sapiens, UniProt P00533, INS772GNP, cells depend on it); assay: BA/F3 (insNPG) proliferation, EGFR Exon20 insertion mutation; details: Table 9; EGFR Exon20 insertion mutations; read-out: BA/F3 (insNPG) IC50
Experimental: as §1, §2

[8] = tested on: HCC-827 cells (EGFRex19del); assay: HCC-827 cell proliferation, Cell Titer Glo, 72 h; details: Homo sapiens
Experimental: as §7, with “HCC-827 cells” for “PC9 cells”, “[…]” for “400 PC9”, “medium (RPMI1640,” for “medium (DMEM,”, “wells.” for “wells. The IC50 values were determined using the four parameter fit.”
The IC50 values were determined using the four parameter fit.

[9] = Homo sapiens, PC-9, 72 h, Table 12, several values per example
[10] = Homo sapiens, PC-9, Table 12, several values per example
[11] = HCC827, Table 12, several values per example

Sequence of Ba/F3-ERBB2-A775_G776insYVMA cells (P04626 with tags, fused parts or gaps DUP772-775): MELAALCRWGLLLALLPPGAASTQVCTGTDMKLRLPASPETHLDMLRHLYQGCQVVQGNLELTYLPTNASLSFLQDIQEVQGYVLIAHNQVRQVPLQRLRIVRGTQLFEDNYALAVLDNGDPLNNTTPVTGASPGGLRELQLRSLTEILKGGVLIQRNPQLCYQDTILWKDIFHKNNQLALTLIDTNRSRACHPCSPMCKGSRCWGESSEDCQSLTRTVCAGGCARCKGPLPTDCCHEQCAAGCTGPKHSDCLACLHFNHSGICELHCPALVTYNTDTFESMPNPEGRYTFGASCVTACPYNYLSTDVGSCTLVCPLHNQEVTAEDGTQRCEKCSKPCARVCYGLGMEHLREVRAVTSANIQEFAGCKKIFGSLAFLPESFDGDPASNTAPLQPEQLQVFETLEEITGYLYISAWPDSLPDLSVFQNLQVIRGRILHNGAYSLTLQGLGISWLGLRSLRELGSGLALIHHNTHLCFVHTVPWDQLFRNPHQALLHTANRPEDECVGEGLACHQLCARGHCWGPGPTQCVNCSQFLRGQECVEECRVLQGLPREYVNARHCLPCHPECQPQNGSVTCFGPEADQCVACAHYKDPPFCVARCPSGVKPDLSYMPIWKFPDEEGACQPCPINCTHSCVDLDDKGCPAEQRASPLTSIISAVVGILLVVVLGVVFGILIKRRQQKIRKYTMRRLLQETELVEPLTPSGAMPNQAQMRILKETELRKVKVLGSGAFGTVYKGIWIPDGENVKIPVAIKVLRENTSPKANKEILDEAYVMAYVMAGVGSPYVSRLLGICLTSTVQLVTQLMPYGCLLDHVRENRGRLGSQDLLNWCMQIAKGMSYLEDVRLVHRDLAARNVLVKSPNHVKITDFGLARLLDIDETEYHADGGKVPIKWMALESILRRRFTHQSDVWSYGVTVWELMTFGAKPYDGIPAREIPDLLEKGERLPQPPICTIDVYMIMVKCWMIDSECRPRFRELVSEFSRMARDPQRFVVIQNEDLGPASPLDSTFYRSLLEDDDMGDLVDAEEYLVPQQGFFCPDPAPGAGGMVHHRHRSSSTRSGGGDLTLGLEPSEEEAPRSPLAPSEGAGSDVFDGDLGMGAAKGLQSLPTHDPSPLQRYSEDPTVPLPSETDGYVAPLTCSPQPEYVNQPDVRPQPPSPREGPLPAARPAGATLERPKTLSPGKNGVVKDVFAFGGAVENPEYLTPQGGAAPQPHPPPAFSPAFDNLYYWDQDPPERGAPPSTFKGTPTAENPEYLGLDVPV
Sequence of Ba/F3-EGFR-D770_N771 insNPG cells (P00533 with tags, fused parts or gaps INS772GNP): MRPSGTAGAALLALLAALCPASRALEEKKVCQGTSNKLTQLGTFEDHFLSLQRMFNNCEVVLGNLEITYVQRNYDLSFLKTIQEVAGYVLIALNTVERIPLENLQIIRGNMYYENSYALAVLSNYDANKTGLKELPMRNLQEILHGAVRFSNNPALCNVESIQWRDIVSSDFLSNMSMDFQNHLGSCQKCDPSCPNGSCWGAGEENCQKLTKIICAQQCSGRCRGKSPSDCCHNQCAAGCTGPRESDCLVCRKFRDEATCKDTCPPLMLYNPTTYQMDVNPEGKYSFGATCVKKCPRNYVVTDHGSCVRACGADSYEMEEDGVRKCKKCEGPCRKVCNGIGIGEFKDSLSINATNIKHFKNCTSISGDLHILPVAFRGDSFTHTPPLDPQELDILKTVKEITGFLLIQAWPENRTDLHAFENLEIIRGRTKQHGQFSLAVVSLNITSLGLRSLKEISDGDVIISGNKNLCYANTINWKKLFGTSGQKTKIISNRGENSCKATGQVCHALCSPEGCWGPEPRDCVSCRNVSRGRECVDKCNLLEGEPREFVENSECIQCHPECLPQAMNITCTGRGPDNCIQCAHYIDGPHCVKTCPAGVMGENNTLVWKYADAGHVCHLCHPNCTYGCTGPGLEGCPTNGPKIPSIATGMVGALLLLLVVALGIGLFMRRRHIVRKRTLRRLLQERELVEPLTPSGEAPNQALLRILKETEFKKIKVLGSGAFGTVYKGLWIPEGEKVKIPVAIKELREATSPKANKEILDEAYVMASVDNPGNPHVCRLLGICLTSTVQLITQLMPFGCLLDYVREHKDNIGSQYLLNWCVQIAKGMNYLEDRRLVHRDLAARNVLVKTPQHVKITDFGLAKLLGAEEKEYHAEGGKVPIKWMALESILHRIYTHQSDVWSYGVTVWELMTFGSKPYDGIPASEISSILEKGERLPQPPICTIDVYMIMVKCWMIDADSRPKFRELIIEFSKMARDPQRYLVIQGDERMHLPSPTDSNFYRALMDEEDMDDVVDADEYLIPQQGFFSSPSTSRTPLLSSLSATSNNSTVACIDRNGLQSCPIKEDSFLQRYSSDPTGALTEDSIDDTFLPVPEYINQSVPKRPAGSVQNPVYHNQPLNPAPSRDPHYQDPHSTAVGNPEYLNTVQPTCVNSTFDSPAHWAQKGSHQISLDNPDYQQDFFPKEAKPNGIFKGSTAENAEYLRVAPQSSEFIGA
Sequence of Ba/F3-EGFR-V769_D770 insASV cells (P00533 with tags, fused parts or gaps DUP767-769): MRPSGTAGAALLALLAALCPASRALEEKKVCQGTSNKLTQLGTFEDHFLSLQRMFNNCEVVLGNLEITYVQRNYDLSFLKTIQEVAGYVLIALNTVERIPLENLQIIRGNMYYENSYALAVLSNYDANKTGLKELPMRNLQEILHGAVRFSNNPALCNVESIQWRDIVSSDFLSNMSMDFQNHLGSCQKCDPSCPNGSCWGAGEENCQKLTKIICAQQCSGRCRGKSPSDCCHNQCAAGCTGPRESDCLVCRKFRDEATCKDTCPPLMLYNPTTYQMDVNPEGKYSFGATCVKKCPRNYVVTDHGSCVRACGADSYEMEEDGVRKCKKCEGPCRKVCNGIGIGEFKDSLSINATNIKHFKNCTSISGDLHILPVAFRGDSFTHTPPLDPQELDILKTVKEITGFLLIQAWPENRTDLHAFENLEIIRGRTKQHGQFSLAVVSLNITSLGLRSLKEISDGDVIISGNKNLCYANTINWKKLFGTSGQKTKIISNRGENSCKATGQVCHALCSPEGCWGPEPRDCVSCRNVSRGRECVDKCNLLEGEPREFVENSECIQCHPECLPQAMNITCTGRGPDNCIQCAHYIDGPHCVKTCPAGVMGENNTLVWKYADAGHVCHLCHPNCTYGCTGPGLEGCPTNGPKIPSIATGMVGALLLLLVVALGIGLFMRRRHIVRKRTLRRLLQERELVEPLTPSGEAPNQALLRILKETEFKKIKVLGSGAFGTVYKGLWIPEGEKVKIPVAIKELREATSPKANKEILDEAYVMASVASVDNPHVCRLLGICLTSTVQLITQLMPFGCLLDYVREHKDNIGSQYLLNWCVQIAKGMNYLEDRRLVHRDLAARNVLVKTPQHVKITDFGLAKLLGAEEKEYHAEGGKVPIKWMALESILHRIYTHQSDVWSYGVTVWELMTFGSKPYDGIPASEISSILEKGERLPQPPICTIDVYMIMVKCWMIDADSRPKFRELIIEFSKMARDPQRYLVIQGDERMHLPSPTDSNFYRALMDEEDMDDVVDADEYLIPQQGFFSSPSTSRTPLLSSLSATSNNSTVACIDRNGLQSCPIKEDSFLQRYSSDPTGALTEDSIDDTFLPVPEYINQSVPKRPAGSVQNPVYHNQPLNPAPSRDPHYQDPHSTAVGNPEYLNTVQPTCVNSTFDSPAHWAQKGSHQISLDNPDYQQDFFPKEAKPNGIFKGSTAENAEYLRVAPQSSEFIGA
Sequence of Ba/F3-EGFR-L858R cells (P00533 whole entry L858R): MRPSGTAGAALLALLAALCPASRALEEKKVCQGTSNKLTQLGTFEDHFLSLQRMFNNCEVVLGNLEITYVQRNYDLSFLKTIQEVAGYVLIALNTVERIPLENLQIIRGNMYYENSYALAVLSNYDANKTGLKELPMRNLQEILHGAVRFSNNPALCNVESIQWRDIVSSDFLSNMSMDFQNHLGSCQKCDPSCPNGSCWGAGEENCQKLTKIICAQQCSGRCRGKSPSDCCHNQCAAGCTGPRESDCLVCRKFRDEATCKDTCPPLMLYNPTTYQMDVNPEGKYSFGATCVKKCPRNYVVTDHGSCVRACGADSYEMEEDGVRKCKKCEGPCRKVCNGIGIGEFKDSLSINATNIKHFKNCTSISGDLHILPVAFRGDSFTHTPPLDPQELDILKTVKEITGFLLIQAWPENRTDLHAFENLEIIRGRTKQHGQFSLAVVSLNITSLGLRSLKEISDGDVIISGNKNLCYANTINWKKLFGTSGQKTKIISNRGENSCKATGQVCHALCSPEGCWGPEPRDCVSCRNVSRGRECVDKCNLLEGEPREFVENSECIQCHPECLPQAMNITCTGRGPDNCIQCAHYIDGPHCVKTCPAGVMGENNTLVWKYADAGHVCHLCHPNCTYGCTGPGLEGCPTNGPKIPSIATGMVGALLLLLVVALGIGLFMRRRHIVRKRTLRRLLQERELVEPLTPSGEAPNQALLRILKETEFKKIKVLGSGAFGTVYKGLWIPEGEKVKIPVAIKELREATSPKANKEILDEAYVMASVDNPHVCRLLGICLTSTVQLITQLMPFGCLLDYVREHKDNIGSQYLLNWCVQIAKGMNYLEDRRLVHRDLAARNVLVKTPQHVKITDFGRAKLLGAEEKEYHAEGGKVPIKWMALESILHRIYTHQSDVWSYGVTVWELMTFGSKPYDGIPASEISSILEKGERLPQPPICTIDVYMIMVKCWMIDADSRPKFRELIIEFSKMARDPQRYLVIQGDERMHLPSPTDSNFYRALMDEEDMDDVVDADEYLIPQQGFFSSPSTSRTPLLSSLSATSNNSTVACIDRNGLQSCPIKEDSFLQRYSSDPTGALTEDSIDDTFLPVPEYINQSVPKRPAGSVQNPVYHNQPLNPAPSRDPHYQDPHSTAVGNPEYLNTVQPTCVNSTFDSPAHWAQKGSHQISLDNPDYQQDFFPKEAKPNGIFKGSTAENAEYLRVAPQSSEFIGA

`Cc1c(F)cccc1Nc1c(-c2ccncc2OC[C@@H]2CCCN2C)[nH]c2c1C(=O)NCC2` [Example 49, 3-(3-fluoro-2-methylanilino)-2-(3-{[(2S)-1-methylpyrrolidin-2-yl]methoxy}pyridin-4-yl)-1,5,6,7-tetrahydro-4H-pyrrolo[3,2-c]pyridin-4-one] was tested, and the GI50 [1] was 231 nM, the IC50 (Ba/F3-EGFR L861Q cells) was 177 nM and the GI50 (Ba/F3-EGFR-L858R cells) was 22.7 nM. The GI50 [2] was 284 nM, the IC50 [3] was 198 nM and the IC50 [4] was 11.6 nM. It also gave an IC50 [5] of 3.01 nM, an IC50 [6] of 7.83 nM and an IC50 (PC9 cells (EGFRex19del); [9]) of under 30 nM. It also gave an IC50 (PC9 cells (EGFRex19del); Table 12, several values per example) of 51.3 nM and a GI50 [7] of 115 nM.

For `COc1c(Cl)cccc1Nc1c(-c2ccncc2OC[C@@H]2CCCO2)[nH]c2c1C(=O)NCC2` [Example 66, 3-(3-chloro-2-methoxyanilino)-2-(3-{[(2S)-oxolan-2-yl]methoxy}pyridin-4-yl)-1,5,6,7-tetrahydro-4H-pyrrolo[3,2-c]pyridin-4-one], the GI50 [1] was 6.62 nM, the IC50 (Ba/F3-EGFR L861Q cells) was 9.81 nM and the GI50 (Ba/F3-EGFR-L858R cells) was 0.685 nM. The GI50 [2] was 6.4 nM, the IC50 [3] was 15.3 nM and the IC50 [4] was under 0.15 nM. The IC50 [5] was 0.288 nM, the IC50 [6] was 1.22 nM and the IC50 (PC9 cells (EGFRex19del); [10]) was 0.944 nM. For the same molecule, the GI50 [7] was 5.57 nM and the IC50 [8, 11] was under 3 nM.

With `COc1c(Cl)cccc1Nc1c(-c2ccncc2OC[C@H]2CCCO2)[nH]c2c1C(=O)NCC2` [Example 67, 3-(3-chloro-2-methoxyanilino)-2-(3-{[(2R)-oxolan-2-yl]methoxy}pyridin-4-yl)-1,5,6,7-tetrahydro-4H-pyrrolo[3,2-c]pyridin-4-one] the GI50 [1] was 11.5 nM, the IC50 (Ba/F3-EGFR L861Q cells) was 19 nM and the GI50 (Ba/F3-EGFR-L858R cells) was 1.48 nM. For the same molecule, the GI50 [2] was 12.8 nM, the IC50 [3] was 23.8 nM and the IC50 [4] was 0.643 nM. The IC50 [5] was 0.387 nM, the IC50 [6] was 1.82 nM and the IC50 (PC9 cells (EGFRex19del); [10]) was 1.77 nM. The GI50 [7] was 13.1 nM and the IC50 [8, 11] was under 3 nM.

Molecule `COc1c(F)cccc1Nc1c(-c2ccncc2OC[C@@H](C)OC)[nH]c2c1C(=O)NCC2` [Example 92, 3-(3-fluoro-2-methoxyanilino)-2-{3-[(2R)-2-methoxypropoxy]pyridin-4-yl}-1,5,6,7-tetrahydro-4H-pyrrolo[3,2-c]pyridin-4-one] has a GI50 [1] of 14.9 nM, an IC50 (Ba/F3-EGFR L861Q cells) of 38 nM and a GI50 (Ba/F3-EGFR-L858R cells) of 1.31 nM. The GI50 [2] was 17.2 nM, the IC50 [3] was 25.6 nM and the IC50 [4] was 0.375 nM. For the same molecule, the IC50 [5] was 0.363 nM, the IC50 [6] was 1.61 nM and the IC50 (PC9 cells (EGFRex19del); [9]) was 3.27 nM. It also gave a GI50 [7] of 13.9 nM and an IC50 ([8]; HCC827, 72 h, Table 12, several values per example) of under 3 nM.
